Measured values from patent publication US20120121691A1, “Method for Increasing the Production of a Specific ACYL-Chain Dihydroceramide(s) for Improving the Effectiveness of Cancer Treatments” (priority 2010, published 2012).

Key:
COG-LL-332 = test: DIMSCAN cytotoxicity assay, COG-LL-332; assay type: cell-based; settings: COG-LL-332, sphinganine 1 μM, GT-11 0.5 μM, 48 hours
Description: (§1) Cell culture. The pre-T acute lymphoblastic leukemia cell lines MOLT-4 and CCRF-CEM, small cell lung cancer cell line NCI-H146, non-small cell lung cancer cell line NCI-H1792, colon cancer cell lines LoVo and HT-29, and breast cancer cell line MCF-7, were purchased from American Type Culture Collection, Manassas, Va., and grown at 20%/5% and 5%/5%, respectively. COG-LL-317 and COG-LL-332 pre-T acute lymphoblastic leukemia cell lines were obtained from the TTUHSC Cancer Center Cell Repository and grown at 5%/5%. Cell line identities were verified by short tandem repeat analysis and mycoplasma testing was performed. Cell lines were maintained in RPMI-1640 medium supplemented with 10% fetal bovine serum (FBS, Invitrogen) in humidified, 37° C. incubators. For all experiments, ALL cell lines were seeded at […] in RPMI-1640 medium supplemented with 15% fetal bovine serum. Solid tumor cell lines were plated at 5×cells/mL in RPMI-1640 medium supplemented with 10% fetal bovine serum.
(§2) Cytotoxicity Assay. Cytoxicity is determined using the DIMSCAN assay system (R. Proffitt et al., Cytometry 24, 204-213 (1996); T. Frgala et al., Proc. AACR, 36, 303 (1995). The system employs digital imaging microscopy to quantify viable cells, which selectively accumulate fluorescein diacetate to become brightly fluorescent. The system is capable of measuring cytotoxicity over a 4-5 log dynamic range by quenching the residual fluorescence of dead and dying cells with eosin Y and quantifying the total fluorescence of viable cells using digital thresholding. Measured fluorescence is directly proportionate to the number of viable cells. A comparison of the total fluorescence of a drug-treated cell population to the fluorescence of a similar number of untreated cells yields a survival fraction. […]
(§3) The addition of C22:0-fatty acid, but not C18:0 or C22:1 fatty acids, increased cytotoxicity (FIGS. 7A-7F). […] Cytotoxicity was measured using DIMSCAN, and data was normalized to control and plotted as survival fraction (y-axis). […]

[1] = tested on: intracellular sphingolipids, MOLT-4; test: LC/MS/MS analysis of intracellular sphingolipids, MOLT-4; assay type: cell-based, human; settings: for increase in corresponding dihydroceramide over sphinganine+GT-11 alone: MOLT-4, fatty acid with sphinganine+GT-11, six hours, P<0.05
Procedure: LC/MS/MS analysis of intracellular sphingolipids. Sphingolipids were separated using an Agilent 1200 HPLC (LC) and determined by ESI/MS/MS performed on a AB SCIEX 4000 QTRAP Hybrid Triple Quadrupole/Linear Ion Trap mass spectrometer (MS), operating in a multiple reaction monitoring positive ionization mode as described previously with moderate modifications (25). Briefly, 50 μL of a solution (1 μM) of internal sphingolipid standards (including -sphingosine, -sphinganine, -sphingosine-1-phosphate, and -ceramide) was added to each cell pellet sample. Lipids of each sample were extracted twice with 2 mL of the ethyl acetate/isopropyl alcohol/water (60:28:12; v:v) solvent system. Supernatants were transferred to glass tubes (Kimble Chase) and evaporated under air (10 PSI) at 40° C. After reconstitution in methanol (4 mL), 1 ml of each sample was separated for the determination of lipid phosphate. Remaining sample (3 mL) was dried and used for sphingolipid quantification. For ESI/MS/MS, the dried lipid sample was dissolved in mobile phase A. Samples were injected (10 μL) and separated on a Spectra C8SR, 150×3.0 mm, 3-μm particle size column using gradient-elution (mobile phase A/B, prepared as previously described).
Data acquisition, peak integration and analyte quantitation were performed using ABI/SCIEX Analyst 1.4.2 Software. Sphingolipid data were normalized to lipid phosphate as previously described (26). Briefly, samples were dried under air (10 PSI) and lipids were extracted using the method of Bligh and Dyer (27). Of importance for phosphate assay, only Kimble Chase disposable borosilicate tubes were used for minimal sample contamination. […] Samples were then incubated with ammonium molybdate and ascorbic acid as previously described, and absorbance ([…]) was read using a SpectraMax.
Cells were treated for 48 hours with Sa (0-4 μM)+/−GT-11 (0.5 μM) with or without C18:0-, C22:0- or C22:1-fatty acids. Cytotoxicity was measured using DIMSCAN, and data was normalized to control and plotted as survival fraction (y-axis). […]

MOLT-4 ALL cells = test: DIMSCAN cytotoxicity assay, MOLT-4; assay type: cell-based, human; settings: MOLT-4, sphinganine 1 μM, GT-11 0.5 μM, 48 hours
Description: as §1, §2, §3

| SMILES | effect of fatty acid co-treatment on cytotoxicity of sphinganine with GT-11 (COG-LL-332) | increase in corresponding dihydroceramide over sphinganine+GT-11 alone [1] | effect of fatty acid co-treatment on cytotoxicity of sphinganine with GT-11 (MOLT-4 ALL cells) | increase of C22:0-dihydroceramide over sphinganine+GT-11 alone ([1]; MOLT-4, fatty acid with sphinganine 1 μM plus GT-11 0.5 μM, six hours, P<0.01) [fold] |
| --- | --- | --- | --- | --- |
| CCCCCCCC/C=C\CCCCCCCCCCCC(=O)O [C22:1-fatty acid] | not | significant increases | not | – |
| CCCCCCCCCCCCCCCCCCCCCC(=O)O [C22:0-fatty acid] | increased | significant increases | increased | 29 |
